From patent US6156724A, “Uses of didemnins as immunomodulating agents” (priority 1998, dated 2000)
Numbered stars: 1 amine (or outer) side, 2 acyl side, 3 side chain; on linkers, the order of the positions; unused ones are H or OH. Bridge positions count the residues as written; N and C are the ends. Square brackets hold non-standard residues; d marks the D form. Peptide text beside a SMILES is read from it. * marks the point of attachment. X4 = CC[C@H](C)[C@@H](N[*:1])[C@@H](O)CC(=O)O[C@@H](C(C)C)[C@H](O)[C@H](C)C(=O)[*:2]; X2 = CC[C@H](C)[C@@H](N[*:1])[C@@H](O)CC(=O)O[C@@H](C(=O)[C@H](C)C(=O)[*:2])C(C)C; X5 = CC[C@@H](C)[C@@H](N[*:1])[C@@H](O)CC(=O)O[C@H](C(=O)[C@H](C)C(=O)[*:2])C(C)C; X1 = CC[C@H](C)[C@@H](N[*:1])[C@@H](O)CC(=O)O[C@H](C(=O)[C@H](C)C(=O)[*:2])C(C)C; X3 = CC[C@H](C)[C@H](N[*:1])[C@@H](O)CC(=O)O[C@H](C(=O)[C@H](C)C(=O)[*:2])C(C)C; X6 = CC[C@H](C)[C@@H](N[*:1])[C@H](O)CC(=O)O[C@H](C(=O)[C@H](C)C(=O)[*:2])C(C)C; NMeY = CN[C@@H](Cc1ccc(O)cc1)C(=O)O; dNMeL = CN[C@H](CC(C)C)C(=O)O; Cbz = O=C(OCc1ccccc1)*

Experiments:
[1] = test system: concanavalin A-induced lymphoblasts (Con A splenocytes); assay: Lymphoblast viability (LbV) assay; details: Con A-stimulated splenocytes (lymphoblasts), MTT
[2] = test system: Balb/c splenocytes (resting lymphocytes); assay: Lymphocyte viability (LcV) assay; format: cell-based, murine; details: unstimulated Balb/c splenocytes, MTT
Method: Forty two (42) didemnin compounds (see Table 1) were evaluated for cytotoxicity to one of the lymphocyte populations in the MLR (i.e., Balb/c splenocytes). The purpose of the lymphocyte viability assay (LcV) is to measure metabolic activity in lymphocytes after they have been exposed to the compounds for the duration of an under conditions equivalent to the MLR. The inverse of the data yields cytotoxicity information about the compounds on murine lymphocytes. The rationale of using resting cells, in this case unstimulated lymphocytes, to measure cytotoxicity has a strategic importance. In the MLR the heterogenous cell populations are predominantly resting cells when the assay begins.
Test compounds were prepared in two sets as described above. Splenocytes were prepared as described previously from one murine strain (Balb/c), and a volume of 200 μL of the cell suspension was added to one set of test compounds and control wells.
Assay plates were incubated as in the MLR and then pulsed overnight 75 μL per well MTT-thiazolyl blue solution (150 μg). The plates were decanted and the resulting insoluble formazan crystals were dissolved in 200 μL of isopropyl alcohol. Absorbance at 570 nm was measured.
The LcV data were calculated as a percentage of basal metabolic activity, or percent viability, relative to BALB/c control, and an LC50 value was interpolated for each test compound.

[3] = test system: murine splenocytes (Balb/c and C57B1/6); assay: Two-way mixed lymphocyte reaction (MLR) assay; details: Balb/c + C57B1/6 splenocytes, 96 h, [3H]thymidine; for IC50: read-out: two-way mixed lymphocyte reaction (MLR) suppression MLR, IC50;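 for all read-outs here: proliferation read as tritiated thymidine incorporation into newly made DNA after an overnight pulse, expressed as percent of control activity, IC50 interpolated per compound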
[4] = test system: CB6F1 mice grafted with Balb/c splenocytes; assay: Graft vs host reaction (GVHR) splenomegaly assay; format: in vivo; details: 200 mg/Kg/day, QD 1-7, ip
Method: Three representative compounds didemnin M (38), O-pGlu-DB (37), and didemnin B (1)-showing high (37,38) or moderate (1) in vivo immunosuppressive activity were subsequently evaluated in a multidose assay (0.16,0.016, and 0.0016 mg/kg per injection; qd 1-7) for their in vivo immunosuppressive effects on the GVHR splenomegaly assay.
Three didemnins (didemnin B, didemnin M, and pGlu-didemnin B) were evaluated in a modified Simonsen splenomegaly assay. Briefly, an F1 hybrid host animal is grated with immunocompetent spleen cells from the parent strain. The index used to measure the success of the GVHR is splenomegaly (increased spleen weight due to cellular proliferation of grafted lymphocytes). An index>1.3 (graft index) is considered to be a successful graft rejection of the recipient animal. Immunosuppression is considered as a reduction of the graft index.
On day O, CB6F1 female mice, 4 weeks of age, were grated by intraperitoneal (ip) injection of 50×10^5 splenocytes from BALB/c female mice in high-glucose ([…]) Dulbecco's modified Eagles medium. A syngeneic control group (CB6F1 --CB6F1) was similarly prepared and served as the negative control. Grafted mice were divided into treatment groups containing six mice each. Groups were injected ip with test compound (dissolved in vehicle; 1% abs. EtOH in sterile phosphate-buffered saline) at one of three dose levels (0.16, 0.016, and 0.0016 mg/kg per injection) in a multidose assay, cyclophosphamide (200 mg/kg per injection) or vehicle on days 1-7 (qd 1-7). On day 8 all groups were sacrificed, spleens were excised, and a graft index was calculated for each group by the following formula: [formula]

Row | Compound | cytotoxicity to lymphocytes LbV, LC50 [1] | cytoxicity to lymphocytes LcV, LC50 [2] | cytoxicity to lymphocytes LcV, LC50 ([2]; highest concentration 10 μg/mL) | two-way mixed lymphocyte reaction (MLR) suppression MLR, IC50 [3] | IC50 [3] | alive day 8 [4] | body weight change day 5 [4] | body weight day 5 (g ± SD) [4] | index (spleen wt. treated/spleen wt. syngenetic injection) [4] | mean group spleen wt. normalized to day 8 body weight [4]
1 | CC[C@H](C)[C@H]1NC(=O)[C@@H](NC(=O)[C@@H](CC(C)C)NC)[C@@H](C)OC(=O)[C@H](Cc2ccc(OC)cc2)N(C)C(=O)[C@@H]2CCCN2C(=O)[C@H](CC(C)C)NC(=O)[C@@H](C)C(=O)[C@H](C(C)C)OC(=O)C[C@@H]1O [Compound 2, Didemnin A] (H-[dNMeL]T[X1]LP[NMeY](Me); ester 2-C) | 15 nM | > 11000 nM | > 10 µg/mL | 0.00093 µg/mL | 0.98 nM |  |  |  |  | 
2 | CC[C@H](C)[C@H]1NC(=O)[C@@H](NC(=O)[C@@H](CC(C)C)N(C)C(=O)OCc2ccccc2)[C@@H](C)OC(=O)[C@H](Cc2ccc(OC)cc2)N(C)C(=O)[C@@H]2CCCN2C(=O)[C@H](CC(C)C)NC(=O)[C@@H](C)C(=O)[C@H](C(C)C)OC(=O)C[C@@H]1O [Compound 3, Z-Didemnin A] (Cbz-[dNMeL]T[X1]LP[NMeY](Me); ester 2-C) | 1.9 nM | 7500 nM | 8.10 µg/mL | 0.0011 µg/mL | 1.02 nM |  |  |  |  | 
3 | CC[C@H](C)[C@H]1NC(=O)[C@@H](NC(=O)[C@@H](CC(C)C)N(C)C(=O)OCc2ccccc2)[C@@H](C)OC(=O)[C@H](Cc2ccc(OC)cc2)N(C)C(=O)[C@@H]2CCCN2C(=O)[C@H](CC(C)C)NC(=O)[C@@H](C)C(=O)[C@H](C(C)C)OC(=O)C[C@H]1O [Compound 4, Z-[(3R,4R,5S)Ist^2]Didemnin A] (Cbz-[dNMeL]T[X6]LP[NMeY](Me); ester 2-C) | 220 nM | 9000 nM | 9.70 µg/mL | 0.019 µg/mL | 18 nM |  |  |  |  | 
4 | CC[C@@H](C)[C@H]1NC(=O)[C@@H](NC(=O)[C@@H](CC(C)C)N(C)C(=O)OCc2ccccc2)[C@@H](C)OC(=O)[C@H](Cc2ccc(OC)cc2)N(C)C(=O)[C@@H]2CCCN2C(=O)[C@H](CC(C)C)NC(=O)[C@@H](C)C(=O)[C@H](C(C)C)OC(=O)C[C@@H]1O [Compound 5, Z-[(3S,4R,5R)-Ist^2]Didemnin A] (Cbz-[dNMeL]T[X5]LP[NMeY](Me); ester 2-C) | 12 nM | > 9300 nM | > 10 µg/mL | 0.0003 µg/mL | 0.28 nM |  |  |  |  | 
5 | CC[C@H](C)[C@@H]1NC(=O)[C@@H](NC(=O)[C@@H](CC(C)C)N(C)C(=O)OCc2ccccc2)[C@@H](C)OC(=O)[C@H](Cc2ccc(OC)cc2)N(C)C(=O)[C@@H]2CCCN2C(=O)[C@H](CC(C)C)NC(=O)[C@@H](C)C(=O)[C@H](C(C)C)OC(=O)C[C@@H]1O [Compound 6, Z-[(3S,4S,5S)-Ist^2]Didemnin A] (Cbz-[dNMeL]T[X3]LP[NMeY](Me); ester 2-C) | 2600 nM | > 9300 nM | > 10 µg/mL | 0.29 µg/mL | 270 nM |  |  |  |  | 
6 | CC[C@H](C)[C@H]1NC(=O)[C@@H](NC(=O)[C@@H](CC(C)C)NC)[C@@H](C)OC(=O)[C@H](Cc2ccc(OC)cc2)N(C)C(=O)[C@@H]2CCCN2C(=O)[C@H](CC(C)C)NC(=O)[C@@H](C)C(=O)[C@H](C(C)C)OC(=O)C[C@@H]1OC(C)=O [Compound 7, O-Acetyldidemnin A] | 77 nM | > 10000 nM | > 10 µg/mL | 0.1 µg/mL | 100 nM |  |  |  |  | 
7 | CC[C@H](C)[C@H]1NC(=O)[C@@H](NC(=O)[C@@H](CC(C)C)NC)[C@@H](C)OC(=O)[C@H](Cc2ccc(OC)cc2)N(C)C(=O)[C@@H]2CCCN2C(=O)[C@H](CC(C)C)NC(=O)[C@@H](C)[C@@H](O)[C@H](C(C)C)OC(=O)C[C@@H]1O [Compound 10, [(2S,3R,4S)-H2 Hip^3]Didemnin A] (H-[dNMeL]T[X4]LP[NMeY](Me); ester 2-C) | 460 nM | > 10600 nM | > 10 µg/mL | 0.029 µg/mL | 30.5 nM |  |  |  |  | 
8 | CC[C@H](C)[C@H]1NC(=O)[C@@H](NC(=O)[C@@H](CC(C)C)N(C)C(=O)[C@@H]2CCCN2C(=O)[C@H](C)O)[C@@H](C)OC(=O)[C@H](Cc2ccc(OC)cc2)N(C)C(=O)[C@@H]2CCCN2C(=O)[C@H](CC(C)C)NC(=O)[C@@H](C)C(=NO)[C@H](C(C)C)OC(=O)C[C@@H]1O [Compound 11, [Hip^3 oxime]Didemnin B] | 1.7 nM | > 8900 nM | > 10 µg/mL | 0.00096 µg/mL | 0.85 nM |  |  |  |  | 
9 | CC[C@H](C)[C@H]1NC(=O)[C@@H](NC(=O)[C@@H](CC(C)C)NC)[C@@H](C)OC(=O)[C@H](Cc2ccc(OC)cc2)N(C)C(=O)[C@@H]2CCCN2C(=O)[C@H](CC(C)C)NC(=O)[C@@H](C)C(=O)[C@@H](C(C)C)OC(=O)C[C@@H]1O [Compound 12, Epididemnin A1] (H-[dNMeL]T[X2]LP[NMeY](Me); ester 2-C) | 51 nM | > 10600 nM | > 10 µg/mL | 0.081 µg/mL | 86 nM |  |  |  |  | 
10 | CC[C@H](C)[C@H]1NC(=O)[C@@H](NC(=O)[C@@H](CC(C)C)N(C)C(=O)[C@@H]2CCCN2C(=O)[C@H](C)O)[C@@H](C)OC(=O)[C@H](Cc2ccc(O)cc2)NC(=O)[C@@H]2CCCN2C(=O)[C@H](CC(C)C)NC(=O)[C@@H](C)C(=O)[C@H](C(C)C)OC(=O)C[C@@H]1O [Compound 13, Didemnin N] | 210 nM | > 9200 nM | > 10 µg/mL | 0.037 µg/mL | 34.2 nM |  |  |  |  | 
11 | CC[C@H](C)[C@H]1NC(=O)[C@@H](NC(=O)[C@@H](CC(C)C)N(C)C(=O)[C@@H]2CCCN2C(=O)[C@H](C)O)[C@@H](C)OC(=O)[C@H](Cc2ccc(OC)c(I)c2)N(C)C(=O)[C@@H]2CCCN2C(=O)[C@H](CC(C)C)NC(=O)[C@@H](C)C(=O)[C@H](C(C)C)OC(=O)C[C@@H]1O [Compound 14, Iododidemnin B] | 0.82 nM | > 8100 nM | > 10 µg/mL | 0.00081 µg/mL | 0.66 nM |  |  |  |  | 
12 | CC[C@H](C)[C@H]1NC(=O)[C@@H](NC(=O)[C@@H](CC(C)C)N(C)C(=O)[C@@H]2CCCN2C(=O)[C@H](C)O)[C@@H](C)OC(=O)[C@H](CC2CCC(OC)CC2)N(C)C(=O)[C@@H]2CCCN2C(=O)[C@H](CC(C)C)NC(=O)[C@@H](C)C(=O)[C@H](C(C)C)OC(=O)C[C@@H]1O (stereo partly drawn) [Compound 15, [H6 Me2 Tyr6]Didemnin B] | 1.6 nM |  |  | 0.00081 µg/mL | 0.72 nM |  |  |  |  | 
13 | O=P1(N(CCCl)CCCl)NCCCO1 (stereo not drawn) [Cyclophosphamide, reference compound] |  |  |  |  |  | 100% | -2.5 g | 13.8 ± 0.4 g | 0.14 | 0.4
